Source: patent US7977484B2, “Crystalline form of cyano-1-cyclopropy1-7-1S,6S-2,8-diazabicyclo[4.3.0]nonan-8-yl)-6-fluoro-1,4-dihydro-4-oxo-3-quinoline carboxylic acid” (Bayer Animal Health GmbH, priority 2004, dated 2011)

Tests used:
[1] = water uptake from the air (hygroscopicity); format: physicochemical
[2] = storage stability of the crystal form; format: physicochemical; details: prolonged storage

conversion to other crystal forms [2]: not converted to other crystal forms
SMILES: N#Cc1c(N2C[C@@H]3CCCN[C@@H]3C2)c(F)cc2c(=O)c(C(=O)O)cn(C3CC3)c12 [Pradofloxacin trihydrate, pradofloxacin trihydrate]
tendency to take up further water from the air [1]: does not show any tendency to take up further water from the air
